ChEMBL document CHEMBL6115031, “Structure-Based Optimization of Moracin M as Potent and Selective PDE4 Inhibitors with Antipsoriasis Effects” (J Med Chem, 2025)
Active and inactive are the calls of the source. The calls are words filed in the database; no cut-off is given here.

What was measured:
[1] = Drug absorption in rat skin assessed as skin permeability by measuring cumulative transdermal amount per unit area administered topically as 0.3% ointment at 100 mg by HPLC analysis; type: ADME, tissue-based, Skin of body; settings: in vivo, topical_or_ocular
[2] = test system: HaCaT; test: Anti-psoriasis effect in M5-stimulated human HaCaT cells assessed as inhibition of cell proliferation at 20 uM pretreated with M5 followed by compound addition and measured after 24 hrs; type: functional, cell-based
[3] = test system: Mus musculus; test: Anti-inflammatory activity in IMQ-induced psoriasis in female BALB/c mouse assessed as reduction in CCL-20 mRNA level at 20 mg/kg administered topically as 0.3 % ointment pretreated with IMQ for 6 hrs followed by compound addition once daily for 7 days by q-PCR analysis; type: functional, organism-based; settings: time 7.0 day
[4] = test system: RAW264.7; test: Anti-inflammatory activity in LPS-stimulated mouse RAW264.7 cells assessed as reduction in TNF-alpha mRNA level pretreated with compound for 2 hrs followed by LPS stimulation and measured after 6 hrs by q-PCR analysis; type: functional, cell-based; settings: dose 5-20 µM, time 8.0 hrs
[5] = Drug absorption in rat skin assessed as skin permeability by measuring steady-state transdermal flux administered topically as 0.3% ointment at 100 mg by HPLC analysis; type: ADME, tissue-based, Skin of body; settings: in vivo, topical_or_ocular
[6] = biological target: 3',5'-cyclic-AMP phosphodiesterase 4C (Homo sapiens, UniProt Q08493); test: Inhibition of PDE4C1 (314 to 639 residues) (unknown origin) extracted from Escherichia coli BL21 cells using 3H-cAMP/3H-cGMP as substrate preincubated with compound for 15 mins followed by substrate addition by liquid scintillation counter
3',5'-cyclic-AMP phosphodiesterase 4C, sequence (Q08493 whole entry, the tested form may be a part): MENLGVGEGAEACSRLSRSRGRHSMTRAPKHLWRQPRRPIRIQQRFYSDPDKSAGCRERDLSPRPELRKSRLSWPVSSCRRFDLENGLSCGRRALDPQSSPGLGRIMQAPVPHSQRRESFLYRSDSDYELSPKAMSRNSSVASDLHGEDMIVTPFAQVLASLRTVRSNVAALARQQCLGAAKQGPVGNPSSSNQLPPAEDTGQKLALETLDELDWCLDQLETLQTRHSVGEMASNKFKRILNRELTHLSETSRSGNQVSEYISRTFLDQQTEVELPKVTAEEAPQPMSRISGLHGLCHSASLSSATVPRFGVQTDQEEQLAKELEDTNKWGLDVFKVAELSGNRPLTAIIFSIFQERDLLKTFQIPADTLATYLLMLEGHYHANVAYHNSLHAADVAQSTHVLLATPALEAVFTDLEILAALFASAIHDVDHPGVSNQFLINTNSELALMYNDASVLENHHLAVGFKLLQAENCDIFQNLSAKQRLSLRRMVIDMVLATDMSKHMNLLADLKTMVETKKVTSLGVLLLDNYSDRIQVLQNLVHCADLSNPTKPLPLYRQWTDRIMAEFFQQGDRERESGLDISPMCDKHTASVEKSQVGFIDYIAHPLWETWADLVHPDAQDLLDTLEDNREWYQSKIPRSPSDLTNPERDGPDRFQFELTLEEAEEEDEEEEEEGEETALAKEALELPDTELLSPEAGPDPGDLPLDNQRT

[7] = test system: HaCaT; test: Inhibition of CREB phosphorylation in human HaCaT cells assessed as increase in pCREB/CREB ratio at 20 uM incubated for 2 hrs by Western blotting analysis; type: cell-based
[8] = test system: Mus musculus; test: Anti-psoriasis effect in IMQ-induced female BALB/c mouse assessed as decrease in skin scales at 20 mg/kg administered topically as 0.3 % ointment pretreated with IMQ for 6 hrs followed by compound addition once daily for 7 days; type: functional, organism-based; settings: time 7.0 day
[9] = test system: Mus musculus; test: Anti-inflammatory activity in IMQ-induced psoriasis in female BALB/c mouse assessed as reduction in IL-6 mRNA level at 20 mg/kg administered topically as 0.3 % ointment pretreated with IMQ for 6 hrs followed by compound addition once daily for 7 days by q-PCR analysis; type: functional, organism-based; settings: time 7.0 day
[10] = test system: Mus musculus; test: Anti-psoriasis effect in IMQ-induced female BALB/c mouse assessed as decrease in erythema scores at 20 mg/kg administered topically as 0.3 % ointment pretreated with IMQ for 6 hrs followed by compound addition once daily for 7 days; type: functional, organism-based; settings: time 7.0 day
[11] = test system: RAW264.7; test: Anti-inflammatory activity in LPS-stimulated mouse RAW264.7 cells assessed as reduction in IL-1beta mRNA level pretreated with compound for 2 hrs followed by LPS stimulation and measured after 6 hrs by q-PCR analysis; type: functional, cell-based; settings: dose 5-20 µM, time 8.0 hrs
[12] = test system: RAW264.7; test: Cytotoxicity against mouse RAW264.7 cells assessed as reduction in cell viability at 5 to 80 uM incubated for 24 hrs by CCK-8 assay; type: toxicity, cell-based; settings: raw264.7, 24 h, dose 5-80 µM
[13] = test system: HaCaT; test: Anti-inflammatory activity in M5- stimulated human HaCaT cells assessed as reduction in TNF-alpha mRNA level incubated for 24 hrs by q-PCR analysis; type: functional, cell-based; settings: dose 5-20 µM
[14] = test system: HaCaT; test: Anti-inflammatory activity in M5- stimulated human HaCaT cells assessed as reduction in IL-17 mRNA level incubated for 24 hrs by q-PCR analysis; type: functional, cell-based; settings: dose 5-20 µM
[15] = test system: HaCaT; test: Cytotoxicity against human HaCaT cells assessed as reduction in cell viability at 5 to 80 uM incubated for 24 hrs by CCK-8 assay; type: toxicity, cell-based; settings: dose 5-80 µM
[16] = test system: Mus musculus; test: Anti-psoriasis effect in IMQ-induced female BALB/c mouse model assessed as reduced bleeding in dermal papilla layers at 20 mg/kg administered topically as 0.3 % ointment pretreated with IMQ for 6 hrs followed by compound addition once daily for 7 days by H and E staining based analysis; type: functional, organism-based; settings: time 7.0 day
[17] = test system: Mus musculus; test: Anti-psoriasis effect in IMQ-induced female BALB/c mouse assessed as reduction in psoriasis area at 20 mg/kg administered topically as 0.3 % ointment pretreated with IMQ for 6 hrs followed by compound addition once daily for 7 days; type: functional, organism-based; settings: time 7.0 day
[18] = biological target: High affinity 3',5'-cyclic-AMP phosphodiesterase 7A (Homo sapiens, UniProt Q13946); test: Inhibition of PDE7A1 (130 to 482 residues) (unknown origin) extracted from Escherichia coli BL21 cells using 3H-cAMP/3H-cGMP as substrate preincubated with compound for 15 mins followed by substrate addition by liquid scintillation counter
High affinity 3',5'-cyclic-AMP phosphodiesterase 7A, sequence (Q13946 whole entry, the tested form may be a part): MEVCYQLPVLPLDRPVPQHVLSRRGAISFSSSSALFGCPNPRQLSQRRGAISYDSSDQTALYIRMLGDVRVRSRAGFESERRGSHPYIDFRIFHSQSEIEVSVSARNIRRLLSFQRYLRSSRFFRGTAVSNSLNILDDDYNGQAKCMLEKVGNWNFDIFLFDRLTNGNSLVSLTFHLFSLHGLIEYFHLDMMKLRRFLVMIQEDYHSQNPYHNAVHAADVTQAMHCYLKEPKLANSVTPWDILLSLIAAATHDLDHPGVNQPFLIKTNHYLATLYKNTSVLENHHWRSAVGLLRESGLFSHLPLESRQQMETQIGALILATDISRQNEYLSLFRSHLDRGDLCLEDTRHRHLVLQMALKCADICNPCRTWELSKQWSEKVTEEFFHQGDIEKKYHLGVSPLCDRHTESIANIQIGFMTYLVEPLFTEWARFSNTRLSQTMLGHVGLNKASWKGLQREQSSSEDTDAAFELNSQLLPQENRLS

[19] = Metabolic stability in rat liver microsomes assessed as half life at 1 uM incubated upto 60 mins in presence of NADPH by LC-MS/MS analysis; type: ADME, Microsome
[20] = test system: Mus musculus; test: Anti-inflammatory activity in IMQ-induced psoriasis in female BALB/c mouse assessed as reduction in TNF-alpha mRNA level at 20 mg/kg administered topically as 0.3 % ointment pretreated with IMQ for 6 hrs followed by compound addition once daily for 7 days by q-PCR analysis; type: functional, organism-based; settings: time 7.0 day

Drug absorption [1]: 15.78 microg/cm2
Jss [5]: 0.43 ug/cm2.hr
IC50 [6]: 0.747 µM
IC50 [18]: 5.91 µM
half-life at 1 µM [19]: 22.9 min
Compound: COC(=O)[C@H]1C[C@@H](Oc2c(O)ccc3cc(-c4ccc(OC(F)F)c(OCC5CC5)c4)oc23)CN1
Activity [2]: Active
Activity [3]: Active
Activity [4]: Dose-dependent-effect
inhibition [7]: Active
Activity [8]: Active
Activity [9]: Active
Activity [10]: Active
Activity [11]: Dose-dependent-effect
Activity [12]: Non-toxic
Activity [13]: Dose-dependent-effect
Activity [14]: Dose-dependent-effect
Activity [15]: Non-toxic
Activity [16]: Active
Activity [17]: Active
Activity [20]: Active
